This assay deals with human plasma kallikrein (Homo sapiens, UniProt P03952). Briefly: Kallikrein inhibition FLINT assay with quenched AMC peptide substrate Z-Gly-Pro-Arg-AMC (end point EP or kinetic KIN reads). The assay is classed as biochemical. Conditions: kinetic reads at 5 min intervals over 30 min; read-out: Kallikrein (KIN) IC50. In a few lines: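 Enzyme and compound were preincubated 30 min before adding 50 μM AMC substrate in pH 7.5 Tris/NaCl/CaCl2/BSA/CHAPS buffer. AMC release was read at 30 min endpoint or every 5 min.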
human plasma kallikrein, sequence (P03952 391-638 limits assumed): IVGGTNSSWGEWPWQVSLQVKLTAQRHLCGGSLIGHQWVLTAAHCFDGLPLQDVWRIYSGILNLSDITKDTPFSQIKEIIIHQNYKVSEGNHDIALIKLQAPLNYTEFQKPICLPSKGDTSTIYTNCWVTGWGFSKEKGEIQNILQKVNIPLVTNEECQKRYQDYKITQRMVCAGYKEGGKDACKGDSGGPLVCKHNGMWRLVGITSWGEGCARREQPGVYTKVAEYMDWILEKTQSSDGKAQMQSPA
human plasma kallikrein, sequence (P03952 20-390 partner limits assumed): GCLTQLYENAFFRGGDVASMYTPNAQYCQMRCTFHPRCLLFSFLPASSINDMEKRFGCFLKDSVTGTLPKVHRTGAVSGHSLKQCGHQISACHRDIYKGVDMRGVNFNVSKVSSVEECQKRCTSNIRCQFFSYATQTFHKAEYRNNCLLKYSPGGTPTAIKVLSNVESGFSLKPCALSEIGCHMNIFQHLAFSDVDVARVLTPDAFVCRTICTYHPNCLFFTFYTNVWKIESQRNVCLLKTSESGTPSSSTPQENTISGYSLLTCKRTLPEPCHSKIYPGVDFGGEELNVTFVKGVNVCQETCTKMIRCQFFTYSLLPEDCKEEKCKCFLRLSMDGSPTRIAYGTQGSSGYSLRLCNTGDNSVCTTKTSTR
Regarding `NC(=O)c1ccc(-c2cnn(C(Cc3ccn(C(F)F)n3)c3ccc(-c4c(OC(F)F)ccc(Cl)c4F)c[n+]3[O-])c2)cc1F` (single isomer, unassigned) [Example Q72], the IC50 came out at 544 nM. For `COc1cc(C(Cc2ccn(C(F)F)n2)n2cc(-c3ccc(C(N)=O)c(F)c3)cn2)[n+]([O-])cc1-c1cc(Cl)ccc1C(C)=O` (single isomer, unassigned) [Example Q77], the IC50 came to 9.8 nM. In the case of `COc1cc(C(Cc2ccn(C(F)F)n2)n2cc(-c3ccc(C(N)=O)c(F)c3)cn2)[n+]([O-])cc1-c1cc(Cl)ccc1C(C)=O` (single isomer, unassigned) [Example Q78] it was 510 nM; in that of `O=C(O)c1cccc(-c2cnn(C(CC3CC3)c3ccc(-c4cc(Cl)ccc4-n4cnnn4)c[n+]3[O-])c2)c1` (stereo not drawn) [Example P13], 536 nM.

As to `O=C(O)c1ccc(-c2cnn(C(c3cn(C4CCNCC4)nn3)c3ccc(-c4c(-n5cnnn5)ccc(Cl)c4F)c[n+]3[O-])c2)cc1` (stereo not drawn) [Example P52], the IC50 is 7710 nM.

With `O=C(NC1CC1)c1ccc(-c2cnn(C(Cc3ccc(F)cc3)c3ccc(-c4cc(Cl)ccc4-n4cnnn4)c[n+]3[O-])c2)cc1` (stereo not drawn) [Example P55], the IC50 is 5.4 nM.

On to `O=C(O)c1ccc(-c2cnn(C(Cc3ccc(Cl)cc3)c3ccc(-c4cc(Cl)ccc4-n4cnnn4)c[n+]3[O-])c2)cc1` (stereo not drawn) [Example P57], for which the IC50 was determined as 3.8 nM. In the case of `COC(=O)NC(C)c1ccc(-c2cnn(C(Cc3ccccc3)c3ccc(-c4cc(Cl)ccc4-n4cnnn4)c[n+]3[O-])c2)cc1` (stereo not drawn) [Example P58] it was 28.5 nM. Regarding `O=C(O)c1ccc(-c2cnn(C(CC3CC3c3ccc(-c4ccccc4)cc3)c3ccc(-c4cc(Cl)ccc4-n4cnnn4)c[n+]3[O-])c2)cc1` (stereo not drawn) [Example P61], the IC50 is 51.9 nM.

With `O=C(O)c1ccc(-c2cnn(C(Cc3ccc(-c4ccccc4)cc3)c3ccc(-c4cc(Cl)ccc4-n4cnnn4)c[n+]3[O-])c2)cc1` (stereo not drawn) [Example P62], the IC50 was 7.8 nM. In the case of `COc1ccc(CC(c2ccc(-c3cc(Cl)ccc3-n3cnnn3)c[n+]2[O-])n2cc(-c3ccc(C(=O)O)cc3)cn2)cc1` (stereo not drawn) [Example P64] it was 5.3 nM; in that of `O=C(O)c1ccc(-c2cnn(C(CCc3ccccc3)c3ccc(-c4cc(Cl)ccc4-n4cnnn4)c[n+]3[O-])c2)cc1` (stereo not drawn) [Example P65], 721 nM; in that of `COc1cc(C(CC2CC2)n2cc(-c3cnn(C)c(=O)c3)cn2)[n+]([O-])cc1-c1c(-n2cnnn2)ccc(Cl)c1F` (stereo not drawn) [Example P66], 20.6 nM. In the case of `CCOC(=O)C1CC1CC(c1ccc(-c2cc(Cl)ccc2-n2cnnn2)c[n+]1[O-])n1cc(-c2ccc(C(=O)O)cc2)cn1` (stereo not drawn) [Example P67] it was 362 nM; in that of `CCOC(=O)C1CC1CC(c1ccc(-c2cc(Cl)ccc2-n2cnnn2)c[n+]1[O-])n1cc(-c2ccc(C(=O)O)cc2)cn1` (stereo not drawn) [Example P68], 513 nM; in that of `COC(=O)Nc1ccc(-c2cnn(C(Cc3ccccc3)c3ccc(-c4c(-n5cnnn5)ccc(Cl)c4F)c[n+]3[O-])c2)cc1` (stereo not drawn) [Example P71], 7.5 nM. Consider `COc1cnc(F)c(-c2cnn(C(CC3CC3)c3ccc(-c4c(-n5cnnn5)ccc(Cl)c4F)c[n+]3[O-])c2)c1` (stereo not drawn) [Example P75], for which the IC50 is 249 nM.

Regarding `CS(=O)(=O)Nc1ccc(-c2cnn(C(Cc3ccccc3)c3ccc(-c4c(-n5cnnn5)ccc(Cl)c4F)c[n+]3[O-])c2)cc1` (stereo not drawn) [Example P76], the IC50 worked out at 4.2 nM. Regarding `COc1cc(C(CC2CC2)n2cc(-c3ccc(N)nc3F)cn2)[n+]([O-])cc1-c1c(-n2cnnn2)ccc(Cl)c1F` (stereo not drawn) [Example P85], the IC50 stood at 4.1 nM. Turning to `COc1ccc(CC(c2ccc(-c3cc(Cl)ccc3-n3cnnn3)c[n+]2[O-])n2cc(-c3ccc(C(=O)NC4CC4)cc3)cn2)cc1` (stereo not drawn) [Example P86], the IC50 was determined as 23 nM. In the case of `O=C(NC1CC1)c1ccc(-c2cnn(C(Cc3ccc(-c4ccccc4)cc3)c3ccc(-c4cc(Cl)ccc4-n4cnnn4)c[n+]3[O-])c2)cc1` (stereo not drawn) [Example P87] it was 79.8 nM; in that of `O=C(O)c1ccc(-c2cnn(C(CC(=O)N3CCNCC3)c3ccc(-c4cc(Cl)ccc4-n4cnnn4)c[n+]3[O-])c2)cc1` (stereo not drawn) [Example P90], 80 nM; in that of `COC(=O)Nc1ccc(-c2cnn(C(Cc3ccc(Cl)cc3)c3ccc(-c4cc(Cl)ccc4-n4cnnn4)c[n+]3[O-])c2)cc1` (stereo not drawn) [Example P92], 45.5 nM. In the case of `COC(=O)Nc1ccc(-c2cnn(C(CC3CC3)c3cc(OC)c(-c4c(-n5cnnn5)ccc(Cl)c4F)c[n+]3[O-])c2)cc1` (stereo not drawn) [Example P93] it was 4.5 nM. For `COC(=O)Nc1ccc(-c2cnn(C(Cc3ccc(Cl)cc3)c3ccc(-c4c(-n5cnnn5)ccc(Cl)c4F)c[n+]3[O-])c2)cc1` (stereo not drawn) [Example P94], the IC50 worked out at 18.3 nM. In the case of `COC(=O)Nc1ccc(-c2cnn(C(CC3CCCCC3)c3ccc(-c4c(-n5cnnn5)ccc(Cl)c4F)c[n+]3[O-])c2)cc1` (stereo not drawn) [Example P102] it was 72.2 nM; in that of `O=C(O)c1ccc(-c2cnn(C(CC3CC3C(=O)N3CCCC3)c3ccc(-c4cc(Cl)ccc4-n4cnnn4)c[n+]3[O-])c2)cc1` (stereo not drawn) [Example P106], 635 nM. For `COC(=O)N1CCCC(c2cnn(C(CC3CC3)c3ccc(-c4c(-n5cnnn5)ccc(Cl)c4F)c[n+]3[O-])c2)C1` (stereo not drawn) [Example P108], the IC50 was 649 nM. Regarding `COC(=O)Nc1ccc(-c2cnn(C(CC3CCC3)c3ccc(-c4c(-n5cnnn5)ccc(Cl)c4F)c[n+]3[O-])c2)cc1` (stereo not drawn) [Example P109], the IC50 turned out to be 45.7 nM. With `COC(=O)Nc1ccc(-c2cnn(C(CC3CCCC3)c3ccc(-c4c(-n5cnnn5)ccc(Cl)c4F)c[n+]3[O-])c2)cc1` (stereo not drawn) [Example P110], the IC50 was 123 nM. In the case of `NC(=O)C1CC1CC(c1ccc(-c2cc(Cl)ccc2-n2cnnn2)c[n+]1[O-])n1cc(-c2ccc(C(=O)O)cc2)cn1` (stereo not drawn) [Example P113] it was 291 nM; in that of `NC(=O)C1CC1CC(c1ccc(-c2cc(Cl)ccc2-n2cnnn2)c[n+]1[O-])n1cc(-c2ccc(C(=O)O)cc2)cn1` (stereo not drawn) [Example P114], 184 nM. In the case of `Cn1ncc(-c2cnn(C(Cc3ccc(F)cc3)c3ccc(-c4c(-n5cnnn5)ccc(Cl)c4F)c[n+]3[O-])c2)cc1=O` (stereo not drawn) [Example P116] it was 26.2 nM; in that of `COC(=O)Nc1ccc(-c2cnn(C(Cc3ccc(F)cc3)c3ccc(-c4c(-n5cnnn5)ccc(Cl)c4F)c[n+]3[O-])c2)cc1` (stereo not drawn) [Example P117], 9.7 nM. In the case of `O=C1CCC(c2ccc(-c3cnn(C(Cc4ccc(F)cc4)c4ccc(-c5c(-n6cnnn6)ccc(Cl)c5F)c[n+]4[O-])c3)cc2)N1` (stereo not drawn) [Example P121] it was 11.3 nM; in that of `COC(=O)Nc1ccc(-c2cnn(C(CC3CCC(C)(C)CC3)c3ccc(-c4c(-n5cnnn5)ccc(Cl)c4F)c[n+]3[O-])c2)cc1` (stereo not drawn) [Example P122], 260 nM; in that of `O=C(NC1CC1)c1ccc(-c2cnn(C(Cc3ccc(F)cc3)c3ccc(-c4c(-n5cnnn5)ccc(Cl)c4F)c[n+]3[O-])c2)cc1` (stereo not drawn) [Example P125], 3.3 nM. On to `COC(=O)Nc1ccc(-c2cnn(C(CC3CC(C)(C)C3)c3ccc(-c4c(-n5cnnn5)ccc(Cl)c4F)c[n+]3[O-])c2)cc1` (stereo not drawn) [Example P126], for which the IC50 is 248 nM. Turning to `O=C(O)c1ccc(-c2cnn(C(CC3OCCc4ccccc43)c3ccc(-c4cc(Cl)ccc4-n4cnnn4)c[n+]3[O-])c2)cc1` (stereo not drawn) [Example P128], the IC50 turned out to be 475 nM. In the case of `COC(=O)Nc1ccc(-c2cnn(C(CC3CCC(C)CC3)c3ccc(-c4c(-n5cnnn5)ccc(Cl)c4F)c[n+]3[O-])c2)cc1` (stereo not drawn) [Example P129] it was 136 nM; in that of `Cc1cc(C(CC2CC2)n2cc(-c3cnn(C)c(=O)c3)cn2)[n+]([O-])cc1-c1c(-n2cnnn2)ccc(Cl)c1F` (stereo not drawn) [Example P130], 959 nM. In the case of `COCC(=O)Nc1ccc(-c2cnn(C(CC3CC3)c3ccc(-c4c(-n5cnnn5)ccc(Cl)c4F)c[n+]3[O-])c2)cc1` (stereo not drawn) [Example P131] it was 192 nM. For `COc1ccc(CC(c2ccc(-c3c(-n4cnnn4)ccc(Cl)c3F)c[n+]2[O-])n2cc(-c3ccn(C)c(=O)c3)cn2)cc1` (stereo not drawn) [Example P134], the IC50 amounted to 7.1 nM. In the case of `COc1ccc(CC(c2ccc(-c3c(-n4cnnn4)ccc(Cl)c3F)c[n+]2[O-])n2cc(-c3ccc(C(=O)NC4CC4)cc3)cn2)cc1` (stereo not drawn) [Example P135] it was 10.8 nM; in that of `O=C(NC1CC1)c1ccc(-c2cnn(C(Cc3ccc(F)cc3)c3ccc(-c4c(-c5cnco5)ccc(Cl)c4F)c[n+]3[O-])c2)cc1` (stereo not drawn) [Example P136], 189 nM. In the case of `CCOc1cc(C(CC2CC2)n2cc(-c3cnn(C)c(=O)c3)cn2)[n+]([O-])cc1-c1c(-n2cnnn2)ccc(Cl)c1F` (stereo not drawn) [Example P137] it was 151 nM. In the case of `NC(=O)COc1ccc(CC(c2ccc(-c3cc(Cl)ccc3-n3cnnn3)c[n+]2[O-])n2cc(-c3ccc(C(=O)O)cc3)cn2)cc1` (stereo not drawn) [Example P138] it was 4.1 nM; in that of `Cn1ncc(-c2cnn(C(CC3CC3)c3cc(Cl)c(-c4c(-n5cnnn5)ccc(Cl)c4F)c[n+]3[O-])c2)cc1=O` (stereo not drawn) [Example P139], 57.5 nM. Consider `COCCOC(=O)Nc1ccc(-c2cnn(C(CC3CC3)c3ccc(-c4c(-n5cnnn5)ccc(Cl)c4F)c[n+]3[O-])c2)cc1` (stereo not drawn) [Example P141], for which the IC50 amounted to 72.8 nM. In the case of `CC(C)Oc1cc(C(CC2CC2)n2cc(-c3cnn(C)c(=O)c3)cn2)[n+]([O-])cc1-c1c(-n2cnnn2)ccc(Cl)c1F` (stereo not drawn) [Example P146] it was 571 nM; in that of `O=C(O)c1ccc(-c2cnn(C(Cc3ccc(Oc4ccccc4)cc3)c3ccc(-c4cc(Cl)ccc4-n4cnnn4)c[n+]3[O-])c2)cc1` (stereo not drawn) [Example P147], 12.2 nM; in that of `O=C(Nc1ccnc(F)c1-c1cnn(C(Cc2ccc(F)cc2)c2ccc(-c3c(-c4cnco4)ccc(Cl)c3F)c[n+]2[O-])c1)C1CC1` (stereo not drawn) [Example P148], 350 nM. Turning to `[O-][n+]1cc(-c2cc(Cl)ccc2-n2cnnn2)ccc1C(Cc1ccc(Cl)cc1)n1cc(-c2ccc(OC(F)(F)F)cc2)cn1` (stereo not drawn) [Example P150], the IC50 stood at 397 nM. `[O-][n+]1cccc(-c2cnn(C(Cc3ccc(Cl)cc3)c3ccc(-c4cc(Cl)ccc4-n4cnnn4)c[n+]3[O-])c2)c1` (stereo not drawn) [Example P151]: the IC50 worked out at 80.1 nM.

Usually IC50 stands for the concentration at which inhibition is half-maximal.

Values taken from patent publication US11814364B2, “Pyridine N-oxide derivatives useful as factor XIa inhibitors” (Janssen Pharmaceutica NV, priority 2021, dated 2023).
